According to BindingDB's records for doi:10.1021/jm00384a016 (1987):

Target: T1, Adenosine receptor A1 (Rattus norvegicus, UniProt P25099)
T1 sequence (P25099 whole entry): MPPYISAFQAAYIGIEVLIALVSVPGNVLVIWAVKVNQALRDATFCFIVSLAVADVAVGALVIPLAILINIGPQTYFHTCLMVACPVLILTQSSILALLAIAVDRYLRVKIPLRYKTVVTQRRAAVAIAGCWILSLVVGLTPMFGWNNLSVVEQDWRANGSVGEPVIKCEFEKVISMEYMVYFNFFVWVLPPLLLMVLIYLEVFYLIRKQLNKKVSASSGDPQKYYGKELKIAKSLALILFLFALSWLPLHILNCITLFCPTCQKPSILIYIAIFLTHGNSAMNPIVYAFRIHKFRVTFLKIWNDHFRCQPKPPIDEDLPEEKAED
Experiment: Binding affinity against adenosine A1 receptor in rat brain membrane using N6-[3H]cyclohexyladenosine

Ki: 370 nM
SMILES: CC(Sc1nc(SC(C)C(N)=O)c2cnn(-c3ccccc3)c2n1)C(N)=O (stereo unspecified) [2-[6-(1-Carbamoyl-ethylsulfanyl)-1-phenyl-1H-pyrazolo[3,4-d]pyrimidin-4-ylsulfanyl]-propionamide]
